Target: human dUTPase (Homo sapiens (Human), UniProt P33316)
Experiment: Human dUTPase inhibitory effect: production of [5-3H]dUMP from [5-3H]dUTP, measured by HPLC with flow scintillation
Assay type: biochemical
Conditions: [5-3H]dUMP production from [5-3H]dUTP, 37° C., 15 minutes
Protocol: The inhibitory activity of the compound of the present invention against human dUTPase was determined by measuring the production of [5-^3H]deoxyuridine monophosphate (hereinafter, referred to as [5-^3H]dUMP) from [5-^3H]deoxyuridine triphosphate (hereinafter, referred to as [5-^3H]dUTP) according to a method shown below.
Specifically, 0.2 mL in total of a solution containing 0.02 mL of 1 μM dUTP (including 588 Bq/mL [5-3H]dUTP), 0.05 mL of a 0.2 M Tris buffer solution (pH 7.4), 0.05 mL of 16 mM magnesium chloride, 0.02 mL of 20 mM 2-mercaptoethanol, 0.02 mL of a 1% aqueous solution of fetal bovine serum-derived albumin, 0.02 mL of varying concentrations of test compound solutions or pure water as a control, and 0.02 mL of a solution of human dUTPase (expressed using E. coli and purified) was reacted at 37° C. for 15 minutes. Immediately after the reaction, the solution was heated at 100° C. for 1 minute to terminate the reaction, followed by centrifugation at 15000 rpm for 2 minutes. An aliquot (150 μL) of the supernatant thus obtained by centrifugation was analyzed using an Atlantis dC18 column (manufactured by Waters Corp., 4.6×250 mm) and a high-performance liquid chromatograph (manufactured by Shimadzu Corp., Prominence). Elution was performed at a flow rate of 0.8 mL/min for 30 minutes by a concentration gradient from a 4:6 mixed solution of a mobile phase A (10 mM potassium dihydrogen phosphate (pH 6.7), 10 mM tetrabutylammonium, and 0.25% methanol) and a mobile phase B (50 mM potassium dihydrogen phosphate (pH 6.7), 5.6 mM tetrabutylammonium, and 30% methanol) to the mobile phase B. The eluate was mixed with a scintillator (manufactured by PerkinElmer Co., Ltd., Ultima-Flo AP) at a 1:2 ratio, and the radioactivity of the produced [5-^3H]dUMP (RT 10.2 min) was measured using Radiomatic Flow Scintillation Analyzer (manufactured by PerkinElmer Co., Ltd., 525TR).
The inhibitory activity of the test compound was determined according to the formula shown below.

human dUTPase, sequence (P33316 94-252): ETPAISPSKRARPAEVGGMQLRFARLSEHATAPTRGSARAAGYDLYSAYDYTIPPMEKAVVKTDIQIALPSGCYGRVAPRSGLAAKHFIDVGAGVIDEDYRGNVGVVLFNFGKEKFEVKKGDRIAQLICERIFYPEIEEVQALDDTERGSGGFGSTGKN

Compound | IC50 [µM]
O=c1ccn(COCCOC(c2ccccc2)(c2ccccc2)c2ccccc2)c(=O)[nH]1 [Comparative Example 1, reference compound] | 185
CN(C(CCn1ccc(=O)[nH]c1=O)C(=O)NO)S(=O)(=O)c1ccc(Oc2ccccc2)cc1 (stereo not shown) [Comparative Example 2, 4-(2,4-Dioxo-3,4-dihydropyrimidin-1(2H)-yl)-N-hydroxy-2-(N-methyl-4-phenoxyphenylsulfonamide)butanamide, reference compound] | 97.2
O=c1ccn(COCCCS(=O)(=O)NCc2cccc(OCC3CC3)c2)c(=O)[nH]1 [Example 1, N-(3-(cyclopropylmethoxy)benzyl)-3-((2,4-dioxo-3,4-dihydropyrimidin-1(2H)-yl)methoxy)propane-1-sulfonamide] | 0.33
C[C@@H](NS(=O)(=O)CCCOCn1ccc(=O)[nH]c1=O)c1cccc(OCC(C)(C)O)c1 [Example 2, (R)-3-((2,4-dioxo-3,4-dihydropyrimidin-1(2H)-yl)methoxy)-N-(1-(3-(2-hydroxy-2-methylpropoxy)phenyl)ethyl)propane-1-sulfonamide] | 1.87
CC[C@@](O)(CNS(=O)(=O)CCCOCn1ccc(=O)[nH]c1=O)c1ccc(F)c(OC2CCCC2)c1 [Example 3, (S)—N-(2-(3-(cyclopentyloxy)-4-fluorophenyl)-2-hydroxybutyl)-3-((2,4-dioxo-3,4-dihydropyrimidin-1(2H)-yl)methoxy)propane-1-sulfonamide] | 0.87
O=c1ccn(COCCCS(=O)(=O)NCc2cccc(OC3CCC3)c2)c(=O)[nH]1 [Example 4, N-(3-cyclobutoxybenzyl)-3-((2,4-dioxo-3,4-dihydropyrimidin-1(2H)-yl)methoxy)propane-1-sulfonamide] | 0.61
C[C@@H](NS(=O)(=O)CCCOCn1ccc(=O)[nH]c1=O)c1cccc(OC2CCCC2)c1 [Example 5, (R)—N-(1-(3-(cyclopentyloxy)phenyl)ethyl)-3-((2,4-dioxo-3,4-dihydropyrimidin-1(2H)-yl)methoxy)propane-1-sulfonamide] | 0.06
C[C@@H](NS(=O)(=O)CCCOCn1ccc(=O)[nH]c1=O)c1cccc(O[C@@H]2CCOC2)c1 [Example 6, 3-((2,4-dioxo-3,4-dihydropyrimidin-1(2H)-yl)methoxy)-N—((R)-1-(3-((R)-tetrahydrofuran-3-yloxy)phenyl)ethyl)propane-1-sulfonamide] | 0.46
O=c1ccn(COCCCS(=O)(=O)NCc2ccc(F)c(OCC3CC3)c2)c(=O)[nH]1 [Example 7, N-(3-(cyclopropylmethoxy)-4-fluorobenzyl)-3-((2,4-dioxo-3,4-dihydropyrimidin-1(2H)-yl)methoxy)propane-1-sulfonamide] | 0.64
C[C@@H](NS(=O)(=O)CCCOCn1ccc(=O)[nH]c1=O)c1ccc(F)c(OCC2CC2)c1 [Example 8, (R)—N-(1-(3-(cyclopropylmethoxy)-4-fluorophenyl)ethyl)-3-((2,4-dioxo-3,4-dihydropyrimidin-1(2H)-yl)methoxy)propane-1-sulfonamide] | 0.09
CC(C)[C@@H](NS(=O)(=O)CCCOCn1ccc(=O)[nH]c1=O)c1ccc(F)c(OCC2CC2)c1 [Example 9, (R)—N-(1-(3-(cyclopropylmethoxy)-4-fluorophenyl)-2-methylpropyl)-3-((2,4-dioxo-3,4-dihydropyrimidin-1(2H)-yl)methoxy)propane-1-sulfonamide] | 0.04
O=c1ccn(COCCCS(=O)(=O)NC(c2ccccc2)c2cccc(OCC3CC3)c2)c(=O)[nH]1 (stereo not shown) [Example 10, N-((3-(cyclopropylmethoxy)phenyl)(phenyl)methyl)-3-((2,4-dioxo-3,4-dihydropyrimidin-1(2H)-yl)methoxy)propane-1-sulfonamide] | 0.16
CC(NS(=O)(=O)CCCOCn1ccc(=O)[nH]c1=O)c1cccc(OCC2CC2)c1 (stereo not shown) [Example 11, N-(1-(3-(cyclopropylmethoxy)phenyl)ethyl)-3-((2,4-dioxo-3,4-dihydropyrimidin-1(2H)-yl)methoxy)propane-1-sulfonamide] | 0.49
O=c1ccn(COCCCS(=O)(=O)NCc2cccc(SCC3CC3)c2)c(=O)[nH]1 [Example 12, N-(3-(cyclopropylmethylthio)benzyl)-3-((2,4-dioxo-3,4-dihydropyrimidin-1(2H)-yl)methoxy)propane-1-sulfonamide] | 2.83
C[C@@H](NS(=O)(=O)CCCOCn1ccc(=O)[nH]c1=O)c1cccc(OC2CC2)c1 [Example 13, (R)—N-(1-(3-cyclopropoxyphenyl)ethyl)-3-((2,4-dioxo-3,4-dihydropyrimidin-1(2H)-yl)methoxy)propane-1-sulfonamide] | 0.33
CCC(CC)(NS(=O)(=O)CCCOCn1ccc(=O)[nH]c1=O)c1cccc(OCC2CC2)c1 [Example 14, N-(3-(3-(cyclopropylmethoxy)phenyl)pentan-3-yl)-3-((2,4-dioxo-3,4-dihydropyrimidin-1(2H)-yl)methoxy)propane-1-sulfonamide] | 0.21
O=c1ccn(COCCCS(=O)(=O)NC(c2ccccc2)c2cccc(OC(F)(F)C(F)F)c2)c(=O)[nH]1 (stereo not shown) [Example 15, 3-((2,4-dioxo-3,4-dihydropyrimidin-1(2H)-yl)methoxy)-N-(phenyl(3-(1,1,2,2-tetrafluoroethoxy)phenyl)methyl)propane-1-sulfonamide] | 0.94
CC(C)COc1cccc(C(NS(=O)(=O)CCCOCn2ccc(=O)[nH]c2=O)c2ccccc2)c1 (stereo not shown) [Example 16, 3-((2,4-dioxo-3,4-dihydropyrimidin-1(2H)-yl)methoxy)-N-((3-isobutoxyphenyl)(phenyl)methyl)propane-1-sulfonamide] | 0.6
O=c1ccn(COCCCS(=O)(=O)NC(c2cccc(OCC3CC3)c2)c2cccc(OCC3CC3)c2)c(=O)[nH]1 [Example 17, N-(bis(3-(cyclopropylmethoxy)phenyl)methyl)-3-((2,4-dioxo-3,4-dihydropyrimidin-1(2H)-yl)methoxy)propane-1-sulfonamide] | 0.21
CC[C@H](C)COc1cccc(C(NS(=O)(=O)CCCOCn2ccc(=O)[nH]c2=O)c2ccccc2)c1 (stereo partly drawn) [Example 18, 3-((2,4-dioxo-3,4-dihydropyrimidin-1(2H)-yl)methoxy)-N-((3-((S)-2-methylbutoxy)phenyl) (phenyl)methyl)propane-1-sulfonamide] | 1.65
O=c1ccn(COCCCS(=O)(=O)NC(c2ccc(F)cc2)c2ccc(F)c(OCC3CC3)c2)c(=O)[nH]1 (stereo not shown) [Example 19, N-((3-(cyclopropylmethoxy)-4-fluorophenyl)(4-fluorophenyl)methyl)-3-((2,4-dioxo-3,4-dihydropyrimidin-1(2H)-yl)methoxy)propane-1-sulfonamide] | 0.24
CCC(CC)(NS(=O)(=O)CCCOCn1ccc(=O)[nH]c1=O)c1ccc(F)c(OCC2CC2)c1 [Example 20, N-(3-(3-(cyclopropylmethoxy)-4-fluorophenyl)pentan-3-yl)-3-((2,4-dioxo-3,4-dihydropyrimidin-1(2H)-yl)methoxy)propane-1-sulfonamide] | 0.19
O=c1ccn(COCCCS(=O)(=O)NCc2cccc(OC3CCCC3)c2)c(=O)[nH]1 [Example 21, N-(3-(cyclopentyloxy)benzyl)-3-((2,4-dioxo-3,4-dihydropyrimidin-1(2H)-yl)methoxy)propane-1-sulfonamide] | 0.27
CC[C@@H](NS(=O)(=O)CCCOCn1ccc(=O)[nH]c1=O)c1ccc(F)c(OCC2CC2)c1 [Example 22, (R)—N-(1-(3-(cyclopropylmethoxy)-4-fluorophenyl)propyl)-3-((2,4-dioxo-3,4-dihydropyrimidin-1(2H)-yl)methoxy)propane-1-sulfonamide] | 0.03
C[C@@H](NS(=O)(=O)CCCOCn1ccc(=O)[nH]c1=O)c1cccc(OCC2CC2)c1 [Example 23, (R)—N-(1-(3-(cyclopropylmethoxy)phenyl)ethyl)-3-((2,4-dioxo-3,4-dihydropyrimidin-1(2H)-yl)methoxy)propane-1-sulfonamide] | 0.05
C[C@@H](NS(=O)(=O)CCCOCn1ccc(=O)[nH]c1=O)c1ccc(F)c(OC2CCCC2)c1 [Example 24, (R)—N-(1-(3-(cyclopentyloxy)-4-fluorophenyl)ethyl)-3-((2,4-dioxo-3,4-dihydropyrimidin-1(2H)-yl)methoxy)propane-1-sulfonamide] | 0.04
CC(C)C(NS(=O)(=O)CCCOCn1ccc(=O)[nH]c1=O)c1ccc(F)c(OCC2CC2)c1 (stereo not shown) [Example 25, N-(1-(3-(cyclopropylmethoxy)-4-fluorophenyl)-2-methylpropyl)-3-((2,4-dioxo-3,4-dihydropyrimidin-1(2H)-yl)methoxy)propane-1-sulfonamide] | 0.1
CC(C)(NS(=O)(=O)CCCOCn1ccc(=O)[nH]c1=O)c1cccc(OCC2CC2)c1 [Example 26, N-(2-(3-(cyclopropylmethoxy)phenyl)propan-2-yl)-3-((2,4-dioxo-3,4-dihydropyrimidin-1(2H)-yl)methoxy)propane-1-sulfonamide] | 0.52

Reference: patent publication US8530490B2, “Uracil compound or salt thereof having human deoxyuridine triphosphatase inhibitory activity” (Taiho Pharmaceutical Co., Ltd., priority 2008, dated 2013)
